Measured values as given in patent US20080096894A1, “Anti-Bacterial Compounds” (ASTON UNIVERSITY, priority 2005, published 2008).
≈ marks a conversion by molar mass, not a printed value.

Tests used:
Experiment in all cases: MIC, agar dilution, multipoint inoculator
[1] = test system: MRSA; assay type: cell-based, methicillin-resistant Staphylococcus aureus; details: for MIC: upper value of MIC reading, in µg/mL; for MRSA MIC range: panel of ten MRSA strains (clinical isolates)
How it was run: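 Agar dilution MIC on Mueller Hinton agar, multipoint inoculator delivering 10^4 colony forming units per spot. MRSA values are ranges across ten clinical MRSA strains; S. aureus NCTC 6571 as reference strain.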

[2] = test system: E. cloacae; assay type: cell-based, Enterobacter cloacae; details: E. cloacae NCTC 11582; upper value of MIC reading
Protocol: (§1) This activity was measured using a multipoint inoculator method as follows. The MIC for each compound was measured using an agar dilution method (Onda, H., et al., Int. J. Antimicrob. Agents. 18, 263 (2001)) (Mueller Hinton agar) by means of a multipoint inoculator delivering 10^4 colony forming units per spot.

[3] = test system: S. epidemisis; assay type: cell-based, Staphylococcus epidermidis; details: upper value of MIC reading
How it was run: (§2)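 Agar dilution on Mueller Hinton agar; a multipoint inoculator delivered 10^4 colony forming units per spot, and the MIC was taken for each compound.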

[4] = test system: K. pneumoniae; assay type: cell-based, Klebsiella pneumoniae; details: K. pneumoniae 327; upper value of MIC reading
Protocol: as §1

[5] = test system: B. bronchiseptica; assay type: cell-based; details: B. bronchiseptica NCTC 8344; upper value of MIC reading
How it was run: as §2

[6] = test system: S. haemolyticus; assay type: cell-based; details: S. haemolyticus Isolate 1; upper value of MIC reading
How it was run: as §2

[7] = test system: E. faecalis; assay type: cell-based; details: upper value of MIC reading
How it was run: as §2

[8] = test system: S. aboni; assay type: cell-based; details: S. aboni NCTC 6017; upper value of MIC reading
How it was run: as §2

[9] = test system: S. maltophilia; assay type: cell-based; details: S. maltophilia NCTC 10257; upper value of MIC reading
How it was run: as §2

[10] = test system: P. auriginosa; assay type: cell-based, Pseudomonas aeruginosa; details: P. auriginosa NCTC 6749; upper value of MIC reading
Protocol: as §1

[11] = test system: S. aureus; assay type: cell-based, Staphylococcus aureus; details: upper value of MIC reading
How it was run: as §2

[12] = test system: E. faecium; assay type: cell-based, Enterococcus faecium; details: upper value of MIC reading
How it was run: as §2

[13] = test system: S. marcesens; assay type: cell-based, Serratia marcescens; details: S. marcesens 4444; upper value of MIC reading
Protocol: as §1

Question: Which results are given for `NC(=NN=Cc1c(O)ccc2ccccc12)c1cccnc1` [Compound 3PYdb]?
Answer: MIC ([1]; MRSA Isolate 1): 256; MIC ([1]; MRSA Isolate 2): 256; MIC ([1]; MRSA Isolate 3): 256; MIC ([1]; MRSA Isolate 4): 256; MIC ([1]; MRSA Isolate 5): 256; MIC ([1]; MRSA Isolate 6): 256; MIC ([1]; MRSA Isolate 7): 256; MIC ([1]; MRSA Isolate 8): 256; MIC ([1]; MRSA Isolate 9): 256; MIC ([1]; MRSA Isolate 10): 256; MRSA MIC range [1]: 128 to 256 µg/mL; MIC [2]: 256 µg/mL (≈ 882 µM); MIC ([3]; S. epidemisis Isolate 1): 256 µg/mL (≈ 882 µM); MIC ([3]; S. epidemisis NCTC 11047): 256 µg/mL (≈ 882 µM); MIC [4]: 256 µg/mL (≈ 882 µM); MIC [5]: 256 µg/mL (≈ 882 µM); MIC [6]: 256 µg/mL (≈ 882 µM); MIC ([7]; E. faecalis Isolate 2): 256 µg/mL (≈ 882 µM); MIC ([7]; E. faecalis Isolate 5): 256 µg/mL (≈ 882 µM); MIC [8]: 32 µg/mL (≈ 110 µM); MIC [9]: 266 µg/mL (≈ 916 µM); MIC [10]: 256 µg/mL (≈ 882 µM); MIC ([11]; S. aureus Cowan 1): 256 µg/mL (≈ 882 µM); MIC ([11]; S. aureus NCTC 6571): 256 µg/mL (≈ 882 µM); MIC ([11]; S. aureus NCTC 10788): 256 µg/mL (≈ 882 µM)

Question: `NC(=NN=Cc1ccc(O)c(O)c1)c1ccc2ccccc2n1` [QNca] was tested. Which MIC ([1]; MRSA Isolate 1) did it give?
Answer: 128

Question: What about the MIC ([1]; MRSA Isolate 2) of the same compound?
Answer: 128

Question: And the MIC ([1]; MRSA Isolate 3)?
Answer: 128

Question: What about the MIC ([1]; MRSA Isolate 4) of the same compound?
Answer: 128

Question: And the MIC ([1]; MRSA Isolate 5)?
Answer: 128

Question: And the MIC ([1]; MRSA Isolate 6)?
Answer: 128

Question: And the MIC ([1]; MRSA Isolate 7)?
Answer: 128

Question: And the MIC ([1]; MRSA Isolate 8)?
Answer: 128

Question: And the MIC ([1]; MRSA Isolate 9)?
Answer: 128

Question: And the MIC ([1]; MRSA Isolate 10)?
Answer: 128

Question: What about the “MRSA MIC range” value [1] of the same compound?
Answer: 64 to 128 µg/mL

Question: And the MIC ([12]; E. faecium ACTCC 10541)?
Answer: 256 µg/mL (≈ 836 µM)

Question: And the MIC ([12]; E. faecium NCTC 7171)?
Answer: 256 µg/mL (≈ 836 µM)

Question: What about the MIC [2] of the same compound?
Answer: 32 µg/mL (≈ 104 µM)

Question: What about the MIC [13] of the same compound?
Answer: 256 µg/mL (≈ 836 µM)

Question: And the MIC ([3]; S. epidemisis Isolate 1)?
Answer: 64 µg/mL (≈ 209 µM)

Question: What about the MIC ([3]; S. epidemisis NCTC 11047) of the same compound?
Answer: 64 µg/mL (≈ 209 µM)

Question: And the MIC [4]?
Answer: 256 µg/mL (≈ 836 µM)

Question: What about the MIC [6] of the same compound?
Answer: 128 µg/mL (≈ 418 µM)

Question: And the MIC ([7]; E. faecalis EBH1)?
Answer: 256 µg/mL (≈ 836 µM)

Question: And the MIC ([7]; E. faecalis Isolate 1)?
Answer: 256 µg/mL (≈ 836 µM)

Question: What about the MIC ([7]; E. faecalis Isolate 2) of the same compound?
Answer: 256 µg/mL (≈ 836 µM)

Question: And the MIC ([7]; E. faecalis Isolate 3)?
Answer: 256 µg/mL (≈ 836 µM)

Question: And the MIC ([7]; E. faecalis Isolate 4)?
Answer: 256 µg/mL (≈ 836 µM)

Question: And the MIC ([7]; E. faecalis Isolate 5)?
Answer: 256 µg/mL (≈ 836 µM)

Question: And the MIC ([7]; E. faecalis NCTC 5957)?
Answer: 256 µg/mL (≈ 836 µM)

Question: And the MIC [8]?
Answer: 256 µg/mL (≈ 836 µM)

Question: And the MIC [9]?
Answer: 256 µg/mL (≈ 836 µM)

Question: And the MIC [10]?
Answer: 256 µg/mL (≈ 836 µM)

Question: What about the MIC ([11]; S. aureus Cowan 1) of the same compound?
Answer: 128 µg/mL (≈ 418 µM)

Question: What about the MIC ([11]; S. aureus NCTC 6571) of the same compound?
Answer: 128 µg/mL (≈ 418 µM)

Question: And the MIC ([11]; S. aureus NCTC 10788)?
Answer: 128 µg/mL (≈ 418 µM)

Question: For `O=Cc1cc([N+](=O)[O-])ccc1O` [cj], which MIC ([1]; MRSA Isolate 1) is on record?
Answer: 2

Question: What about the MIC ([1]; MRSA Isolate 2) of the same compound?
Answer: 4

Question: What about the MIC ([1]; MRSA Isolate 3) of the same compound?
Answer: 2

Question: And the MIC ([1]; MRSA Isolate 4)?
Answer: 2

Question: What about the MIC ([1]; MRSA Isolate 5) of the same compound?
Answer: 2

Question: And the MIC ([1]; MRSA Isolate 6)?
Answer: 4

Question: What about the MIC ([1]; MRSA Isolate 7) of the same compound?
Answer: 4

Question: And the MIC ([1]; MRSA Isolate 8)?
Answer: 4

Question: What about the MIC ([1]; MRSA Isolate 9) of the same compound?
Answer: 4

Question: And the MIC ([1]; MRSA Isolate 10)?
Answer: 4

Question: And the MIC [2]?
Answer: 256 µg/mL (≈ 1530 µM)

Question: And the MIC ([3]; S. epidemisis Isolate 1)?
Answer: 2 µg/mL (≈ 12 µM)

Question: What about the MIC ([3]; S. epidemisis NCTC 11047) of the same compound?
Answer: 2 µg/mL (≈ 12 µM)

Question: And the MIC [4]?
Answer: 256 µg/mL (≈ 1530 µM)

Question: And the MIC [5]?
Answer: 256 µg/mL (≈ 1530 µM)

Question: What about the MIC ([7]; E. faecalis Isolate 1) of the same compound?
Answer: 256 µg/mL (≈ 1530 µM)

Question: And the MIC ([7]; E. faecalis Isolate 5)?
Answer: 256 µg/mL (≈ 1530 µM)

Question: What about the MIC [8] of the same compound?
Answer: 1 µg/mL (≈ 5.98 µM)

Question: What about the MIC [9] of the same compound?
Answer: 256 µg/mL (≈ 1530 µM)

Question: And the MIC [10]?
Answer: 256 µg/mL (≈ 1530 µM)

Question: What about the MIC ([11]; S. aureus Cowan 1) of the same compound?
Answer: 16 µg/mL (≈ 95.7 µM)

Question: What about the MIC ([11]; S. aureus NCTC 6571) of the same compound?
Answer: 4 µg/mL (≈ 23.9 µM)

Question: What about the MIC ([11]; S. aureus NCTC 10788) of the same compound?
Answer: 2 µg/mL (≈ 12 µM)
